Results as given in patent publication US11053226B2, “KRAS G12C inhibitors and methods of using the same” (Amgen Inc., priority 2018, dated 2021).
Read-outs that look alike come from different tables or passages of the source.

Experiments:
[1] = test system: Phosphorylation of ERK1/2 in A549 cells; assay: Phospho-ERK1/2 MSD Assay (A549); assay type: cell-based
[2] = biological target: GDP-bound KRAS protein (aa 1-169), containing both G12C and C118A amino acid substitutions (Homo sapiens (Human), UniProt P01116, C118A/G12C); assay: Coupled Nucleotide Exchange Assay; assay type: biochemical
GDP-bound KRAS protein (aa 1-169), containing both G12C and C118A amino acid substitutions, sequence (P01116 other isoform, or with tags, fused parts or gaps G12C/C118A): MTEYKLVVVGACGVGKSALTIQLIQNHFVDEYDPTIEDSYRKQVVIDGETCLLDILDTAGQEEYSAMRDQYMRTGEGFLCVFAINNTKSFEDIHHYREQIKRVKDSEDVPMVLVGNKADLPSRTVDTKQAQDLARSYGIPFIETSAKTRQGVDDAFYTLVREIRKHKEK
Experimental: For compounds in Table 9, the following assay conditions were employed:
Coupled Nucleotide Exchange Assay:
The assay plates were then read on a PerkinElmer EnVision Multilabel Reader, using AlphaScreen® technology, and data were analyzed using a 4-parameter logistic model to calculate IC50 values.

[3] = test system: Phosphorylation of ERK1/2 in MIA PaCa-2 cells; assay: Phospho-ERK1/2 MSD Assay; assay type: cell-based; details: MiaPaCa-2 cells
[4] = Homo sapiens, read-out: pERK IC50 (4 h), 4 h compound treatment
[5] = read-out: Coupled Exchange IC50 (5 min), 5 min compound pre-incubation
[6] = read-out: Coupled Exchange IC50 (2 h), 2 h compound pre-incubation
[7] = read-out: Coupled Exchange IC50 (20 h), 20 h compound pre-incubation
[8] = Homo sapiens, MIA PaCa-2, read-out: pERK IC50 (4 h), 4 h compound treatment
[9] = Homo sapiens, A549, 4 h, read-out: pERK IC50 (4 h, A549), 4 h compound treatment
[10] = Homo sapiens, MIA PaCa-2, 4 h, read-out: pERK IC50 (4 h, MiaPaCa-2), 4 h compound treatment
[11] = read-out: pERK IC50 (4 h, A549), 4 h compound treatment
[12] = read-out: pERK IC50 (4 h, MiaPaCa-2), 4 h compound treatment

| SMILES | IC50 [1, 4] [µM] | IC50 [2, 5] [µM] | IC50 [2, 6] [µM] | IC50 [2, 7] [µM] | IC50 [3, 8] [µM] | IC50 [1, 9] [µM] | IC50 [3, 10] [µM] | IC50 [1, 11] [µM] | IC50 [3, 12] [µM] |
| --- | --- | --- | --- | --- | --- | --- | --- | --- | --- |
| C=CC(=O)N1CC(NC(=O)Cn2c(C)c(-c3ccccc3C)c3cc(Cl)ccc32)C1 [Example 121] | > 100 | 12.4 | 1.57 | 0.42 | 31.2 |  |  |  |  |
| C=CC(=O)N1CC(NC(=O)Cn2cc(C(=O)N3CCc4ccc(C)cc4C3)c3cc(Br)ccc32)C1 [Example 122] |  |  | 0.69 | 0.17 |  | > 100 | 31.4 |  |  |
| C=CC(=O)N1CC(NC(=O)Cn2c(C)c(-c3ccccc3OC)c3cc(Cl)ccc32)C1 [Example 125] | > 100 |  | 2.75 |  | 33.6 |  |  |  |  |
| C=CC(=O)N1CC(NC(=O)Cn2cc(I)c3cc([N+](=O)[O-])ccc32)C1 [Example 128] | > 100 | > 250 | 7.24 | 1.18 | 35.6 |  |  |  |  |
| C=CC(=O)N1CC(NC(=O)Cn2cc(-c3c(C)ccc4cn[nH]c34)c3cc(Br)ccc32)C1 [Example 130] | 50.1 |  | 4.49 | 1.02 | 37 |  |  |  |  |
| C=CC(=O)N1CC(NC(=O)C(C)(C)n2c(C)c(C(=O)N3CCc4c(cccc4OC)C3)c3cc(Cl)ccc32)C1 [Example 131] | 50.6 |  | 5.54 | 1.04 | 37 |  |  |  |  |
| C=CC(=O)N1CC(NC(=O)Cn2cc(C3CC3)c3cc(Br)ccc32)C1 [Example 132] | > 100 |  | 9.52 | 1.71 | 37.9 |  |  |  |  |
| C=CC(=O)N1CC(NC(=O)Cn2c3c(c4cc(Br)ccc42)CC(c2ccccc2)CC3)C1 (stereo not drawn) [Example 133] | > 100 |  | 7.06 | 1.33 | 37.9 |  |  |  |  |
| C=CC(=O)N1CC(NC(=O)Cn2c3c(c4cc([N+](=O)[O-])ccc42)CCCCC3)C1 [Example 135] |  |  | 4.25 | 0.63 |  |  |  | > 100 | 38.7 |
| C=CC(=O)N1CC(NC(=O)Cn2cc(CNCc3ccccc3)c3cc(Br)ccc32)C1 [Example 136] | 36.6 |  | 9.85 | 1.91 | 39.6 |  |  |  |  |
| C=CC(=O)N1CC(NC(=O)Cn2cc(-c3ccc(F)cc3F)c3cc(Br)ccc32)C1 [Example 137] | 16.5 |  | 6.9 | 1.13 | 40.4 |  |  |  |  |
| C=CC(=O)N1CC(NC(=O)Cn2cc(I)c3cc(Cl)ccc32)C1 [Example 139] | > 100 | > 250 | 4.15 | 0.52 | 40.6 |  |  |  |  |
| C=CC(=O)N1CC(NC(=O)Cn2c3c(c4cc(Br)ccc42)CN(C(=O)OCc2ccccc2)CC3)C1 [Example 141] | 19.3 |  | 7.25 | 1.51 | 42.4 |  |  |  |  |
| C=CC(=O)N1CC(NC(=O)Cn2cc(-c3c(C)ccc4[nH]ncc34)c3cc(Cl)ccc32)C1 [Example 142] | > 100 |  | 3.71 | 0.83 | 44.1 |  |  |  |  |
| C=CC(=O)N1CC(NC(=O)Cn2c3c(c4cc([N+](=O)[O-])ccc42)CCCC3)C1 [Example 143] |  |  | 4.53 | 0.85 |  |  |  | > 100 | 44.9 |
| C=CC(=O)N1CC(NC(=O)Cn2cc(-c3c(O)cccc3F)c3cc(Cl)ccc32)C1 [Example 144] | > 100 |  | 3.84 | 0.75 | 46.8 |  |  |  |  |
| C=CC(=O)N1CC(NC(=O)Cn2cc(CN3CCc4ccccc4C3)c3cc(Br)ccc32)C1 [Example 145] | 50.9 |  | 5.7 | 1.12 | 46.9 |  |  |  |  |
| C=CC(=O)N1CC(NC(=O)Cn2cc(C3CC3)c3ccc(-c4ccccc4Cl)cc32)C1 [Example 146] | 74.2 |  | 3.8 | 0.74 | 47.1 |  |  |  |  |
| C=CC(=O)N1CC(NC(=O)Cn2c(C)c(-c3cccc4ncccc34)c3cc(Cl)ccc32)C1 [Example 147] | > 100 |  | 2.6 | 0.52 | 49.6 |  |  |  |  |
| COc1cccc2c1CCN(C(=O)c1cn(CC(=O)NC3CN(C(=O)/C=C/CN(C)C)C3)c3ccc(Br)cc13)C2 [Example 149] |  |  | 3.6 | 0.68 |  | > 100 | 50.7 |  |  |
| C=CC(=O)N1CC(NC(=O)Cn2cc(I)c3ccc(-c4ccccc4Cl)cc32)C1 [Example 150] | > 100 |  | 2.92 | 0.59 | 50.8 |  |  |  |  |
| C=CC(=O)N1CC(NC(=O)Cn2cc(-c3ccccc3OC)c3cc(Br)ccc32)C1 [Example 151] | 14.6 |  | 4.33 | 0.92 | 51.2 |  |  |  |  |
